Results as given in article PMC12670396, “Crizotinib- or Ceritinib-Conjugated Platinum(IV) Prodrugs As Potent Multiaction Agents Inducing Antiproliferative Effects in 2D and 3D Cancer Cell Models” (Journal of Medicinal Chemistry, 2025).

Experiments:
A549 = experiment: MTT cytotoxic/antiproliferative activity, 72 h; format: cell-based, human; details: for IC50: A549, MTT, 72 h
U87-MG = experiment: MTT cytotoxic/antiproliferative activity, 72 h; format: cell-based, human; details: for IC50: MTT, 72 h
Protocol: (§1) A panel of six cancer cell lines was used to evaluate the cytotoxic potential of the investigated compounds.
(§2) Cytotoxicity in hepatocyte-like cells (HLC). STEMdiff Hepatocyte Kit was used to generate HLC from human pluripotent stem cells. Cytotoxicity of several of the tested compounds in HLC was evaluated using the sulphorhodamine B assay.

HCT116 = experiment: MTT cytotoxic/antiproliferative activity, 72 h; format: cell-based, human; details: for IC50: HCT116, MTT, 72 h
RD = experiment: MTT cytotoxic/antiproliferative activity, 72 h; format: cell-based, human; details: for IC50: MTT, 72 h
MDA-MB-231 = experiment: MTT cytotoxic/antiproliferative activity, 72 h; format: cell-based, human; details: for IC50: MDA-MB-231, MTT, 72 h
IMR-90 = experiment: MTT cytotoxicity in noncancerous cells, 72 h; format: cell-based, human; details: IMR-90, MTT
Protocol: (§3) Growth inhibition activity in cancer cell lines was compared with the activity to inhibit the proliferation of normal (noncancerous) cells, namely MRC-5, IMR-90, hTERT-HPNE, and MCF10A cells. Selectivity indexes (SI) were calculated as (IC50 in noncancerous cells)/(average IC50 in cancer cells). […] We further assessed the toxicity of several of the compounds in hepatocyte-like cells (HLC) generated from human pluripotent cells.
as §2

MCF10A = experiment: MTT cytotoxicity in noncancerous cells, 72 h; format: cell-based, human
Protocol: as §3, §2

MRC-5 = experiment: MTT cytotoxicity in noncancerous cells, 72 h; format: cell-based, human; details: MRC-5, MTT
Protocol: as §3, §2

hTERT-HPNE = experiment: MTT cytotoxicity in noncancerous cells, 72 h; format: cell-based, human
Protocol: as §3, §2

CHOK1 = experiment: MTT cytotoxicity in NER-proficient cells, 72 h; format: cell-based, Chinese hamster
From the text: (§4) The cytotoxicity assay was also employed to determine whether DNA damage might be involved in the mechanism of action of the tested compounds. The Chinese hamster ovary MMC2 cell line harbors the ERCC3/XPB mutation, which renders it deficient in nucleotide excision repair (NER), whereas the parent line CHOK1 is proficient in this repair process. Thus, the MMC2 line is often more sensitive to agents causing DNA damage, especially NER-reparable DNA damage, than CHOK1. […] Phosphorylation of H2AX is a commonly used marker of DNA damage.
as §2

MMC2 = experiment: MTT cytotoxicity in NER-deficient cells, 72 h; format: cell-based, Chinese hamster; details: for Index F: IC50(CHOK1)/IC50(MMC2); for IC50: MMC2 (NER deficient), MTT, 72 h
From the text: as §4, with “damage. […]” for “damage.”

[1] = system: panel of six cancer cell lines; experiment: MTT, panel of six cancer cell lines (average, ranges); format: cell-based, human; details: average over six cancer cell lines; read-out: av cancer (average IC50 in cancer cells)
Protocol: as §1, §2

[2] = system: normal (noncancerous) cells MRC-5, IMR-90, hTERT-HPNE, MCF10A; experiment: MTT, noncancerous cell lines (average, selectivity index); format: cell-based, human; details: for SI, selectivity index: IC50(normal cells)/averageIC50(cancer cells); for IC50: average over MRC-5, IMR-90, hTERT-HPNE, MCF10A, read-out: av norm (average IC50 in noncancerous cells)
Protocol: as §3, with “pluripotent cells. […]” for “pluripotent cells.”

A549 spheroids = experiment: Cytotoxicity in 3D spheroids, CellTiter-Glo 3D; format: cell-based, human; details: A549 3D spheroids, 96 h
Protocol: (§5) In the 3D structure, the gradients of gases, nutrients, and therapeutics play a role in the final cytotoxicity of a compound.
(§6) A549 and NCI-H2228 cells were seeded in ultralow attachment, U-shape plates (Corning) at a density of 800 cells/well in the tumorsphere medium consisting of DMEM/F12 medium (Sigma), fibroblast growth factor (20 ng/mL; Sigma), epidermal growth factor 2 (10 ng mL^–1; Sigma), B27 supplement (1×; Gibco), bovine serum albumin, bovine serum albumin (BSA) (1.5 mg mL^–1; Sigma). […] CellTiter-Glo 3D viability assay was used for the experiment evaluation following the manufacturer’s instructions. The bioluminescence signal, proportional to the number of living cells, was measured using the luminescence reader SPARK, and IC50 values were calculated.

NCI-H2228 spheroids = experiment: Cytotoxicity in 3D spheroids, CellTiter-Glo 3D; format: cell-based, human; details: NCI-H2228 3D spheroids, 96 h
Protocol: as §5, §6

NCI-H2228 cells = experiment: Phosphorylation of H2AX (γH2AX foci, confocal microscopy); format: cell-based, human; details: NCI-H2228, 3xIC50, 24 h
From the text: as §4
The nuclei were counter-stained with DAPI. The samples were mounted with ProLong Diamond antifade mountant, and the images were recorded on a Leica SP8 confocal microscope.

CT26 cell line = experiment: MTT cytotoxic/antiproliferative activity, 72 h; format: cell-based, murine
A549 cells = experiment: Scratch test (cell migration); format: cell-based, human; details: A549, IC50 concentrations, 48 h
Protocol: First, we employed the scratch test. The ability to slow the cell closing the open area was observable for all tested compounds to a similar extent (Figure S38). Whereas the open area was almost completely closed after 48 h in nontreated cells, it remained almost fully clear of cells in the treated samples.
A549 cells were seeded in 24-well plates with inserts (Ibidi) at a density of 2 × 10^4 cells/chamber and incubated overnight. The inserts were then withdrawn, and fresh medium containing the investigated compounds was added. The image of the cell-free region was recorded at the time of compound addition and then after 48 h. The cell-free area was evaluated with Fiji software.

CT26 cells = experiment: Externalization of calreticulin (flow cytometry); format: cell-based, murine; details: IC50 concentrations, 16 h
Protocol: Cells with compromised cell membranes (PI-positive) were excluded from the analysis.
CT26 cells were seeded in 6-well plates at a density of 2.5 × 10^5 cells/well and grown overnight. […] PI was added before the flow cytometry analysis with a BD FACS Verse flow cytometer. Then 3 × 10^4 cells were analyzed following the exclusion of cell aggregates. Data was analyzed with FSC Express 7 software (DeNovo software, Glendale, CA).

Row | SMILES | IC50 (A549) [µM] | IC50 (U87-MG) [µM] | IC50 (HCT116) [µM] | IC50 (RD) [µM] | IC50 (MDA-MB-231) [µM] | IC50 (IMR-90) [µM] | IC50 (MCF10A) [µM] | IC50 (MRC-5) [µM] | IC50 (hTERT-HPNE) [µM] | IC50 (CHOK1) [µM] | Index F (MMC2) | IC50 (MMC2) [µM] | IC50 [1] [µM] | IC50 [2] [µM] | IC50 (A549 spheroids) [µM] | IC50 (NCI-H2228 spheroids) [µM] | γH2AX foci (DNA damage marker) (NCI-H2228 cells) | IC50 (CT26 cell line) [µM] | antimigratory effect (closing of open area) (A549 cells) | externalization of calreticulin (CT26 cells) | further results
1 | N.N.[Cl][Pt][Cl] [cisPt, cisplatin, reference compound] | 4.3 ± 0.2 | 3 ± 0.2 | 8.8 ± 0.5 | 7.3 ± 0.2 | 27 ± 4 | 9.6 ± 0.8 | 8 ± 0.9 | 10 ± 2 | 12 ± 2 | 24 ± 2 | 9.23(***) | 2.6 ± 0.6 | 8.8 | 9.9 | 19 ± 3 | 2.1 ± 0.9 | detected γH2AX foci | 6 ± 1 | reduced the area filling only partially | weakest | Index F (MMC2; listed as cisplatin): approximately 9; SI, selectivity index [2]: 1.1
2 | Cc1cc(Nc2ncc(Cl)c(Nc3ccccc3S(=O)(=O)C(C)C)n2)c(OC(C)C)cc1C1CCN(C(=O)[O][Pt]([Cl])([Cl])[O]C(=O)CCCc2ccccc2)CC1.N.N [compound 7, ctc-[Pt(NH3)2(ceritinib)(PhB)Cl2]] | 0.23 ± 0.08 | 0.26 ± 0.09 | 0.19 ± 0.06 | 0.35 ± 0.03 | 0.22 ± 0.08 | 1.1 ± 0.3 | 0.9 ± 0.2 | 1.2 ± 0.4 | 2 ± 0.3 | 0.46 ± 0.08 | 4.60(**) | 0.1 ± 0.03 | 0.22 | 1.3 | 0.43 ± 0.07 | 0.11 ± 0.03 | detected γH2AX foci | 0.27 ± 0.07 | antimigratory potential comparable to that of crizotinib and ceritinib | externalization of calreticulin was apparent | IC50(MIX)/IC50(complex) (A549; A549, MIX3/3 or MIX7/7): 3.9; IC50(MIX)/IC50(complex) (U87-MG; MIX3/3 or MIX7/7): 2.4; IC50(MIX)/IC50(complex) (HCT116; HCT116, MIX3/3 or MIX7/7): 3.1; IC50(MIX)/IC50(complex) (RD; MIX3/3 or MIX7/7): 1.7; IC50(MIX)/IC50(complex) (MDA-MB-231; MDA-MB-231, MIX3/3 or MIX7/7): 4.1; SI, selectivity index [2]: 5.9
3 | CC(Oc1cc(-c2cnn(C3CCN(C(=O)[O][Pt]([Cl])([Cl])[O]C(=O)CCCc4ccccc4)CC3)c2)cnc1N)c1c(Cl)ccc(F)c1Cl.N.N (stereo not shown) [compound 3, ctc-[Pt(NH3)2(crizotinib)(PhB)Cl2]] | 0.48 ± 0.06 | 0.44 ± 0.05 | 0.57 ± 0.09 | 0.54 ± 0.07 | 0.5 ± 0.07 | 2.3 ± 0.6 | 2.6 ± 0.4 | 1.5 ± 0.6 | 2.2 ± 0.4 | 0.63 ± 0.05 | – | 0.23 ± 0.08 | 0.5 | 2.2 | 0.98 ± 0.05 | 0.41 ± 0.07 | detected γH2AX foci | 0.8 ± 0.2 | antimigratory potential comparable to that of crizotinib and ceritinib | externalization of calreticulin was apparent | –
